Source: US20240092782A1, “TRICYCLIC PESTICIDAL COMPOUNDS” (BASF SE, priority 2021, published 2024)

Assays:
Assay type in all cases: in vivo
[1] = system: tobacco budworm (Heliothis virescens); experiment: whole plant or invertebrate; settings: 120 h, egg and larval mortality after 5 days, read-out: mortality in comparison with untreated controls
Method: Tobacco Budworm (Heliothis virescens)
(§1) For evaluating control of tobacco budworm (Heliothis virescens) the test unit consisted of 96-well-microtiter plates containing an insect diet and 15-25 H. virescens eggs. The compounds were formulated using a solution containing 75% v/v water and 25% v/v DMSO. Different concentrations of formulated compounds were sprayed onto the insect diet at 10 μl, using a custom built micro atomizer, at two replications. After application, microtiter plates were incubated at about 28±1° C. and about 80±5% relative humidity for 5 days. Egg and larval mortality was then visually assessed.

[2] = system: boll weevil (Anthonomus grandis); experiment: Boll weevil (Anthonomus grandis) egg and larval mortality, insect diet microtiter plate; settings: 120 h, egg and larval mortality after 5 days, read-out: mortality in comparison with untreated controls
Method: Boll Weevil (Anthonomus grandis)
as §1, with “boll weevil (Anthonomus grandis)” for “tobacco budworm (Heliothis virescens)”, “5-10 A. grandis” for “15-25 H. virescens”, “5” for “10”, “25±1°” for “28±1°”, “75±5%” for “80±5%”

[3] = system: yellow fever mosquito (Aedes aegypti); experiment: whole plant or invertebrate; settings: 48 h, larval mortality after 2 days, read-out: mortality in comparison with untreated controls
Method: Yellow Fever Mosquito (Aedes aegypti)
For evaluating control of yellow fever mosquito (Aedes aegypti) the test unit consisted of 96-well-microtiter plates containing 200 μl of tap water per well and 5-15 freshly hatched A. aegypti larvae. The active compounds were formulated using a solution containing 75% (v/v) water and 25% (v/v) DMSO. Different concentrations of formulated compounds or mixtures were sprayed onto the insect diet at 2.5 μl, using a custom built micro atomizer, at two replications. After application, microtiter plates were incubated at 28+1° C., 80+5% RH for 2 days. Larval mortality was then visually assessed.

[4] = system: Red Spider Mite (Tetranychus kanzawai); experiment: Red spider mite (Tetranychus kanzawai) mortality on sprayed cowpea beans; settings: 72 hours after treatment, read-out: mortality in comparison with untreated controls
Method: Red Spider Mite (Tetranychus kanzawai)
The active compound of formula ( ))s dissolved at the desired concentration in a mixture of 1:1 (vol:vol) distilled water:acetone. Add surfactant (Kinetic) is added at a rate of 0.01% (vol/vol).The test solution is prepared at the day of use. Potted cowpea beans of 4-5 days of age are cleaned with tap water and sprayed with 1-2 ml of the test solution using air driven DeVilbiss® hand atomizer at 20-30 psi (≈1.38 to 2.07 bar). The treated plants are allowed to air dry and afterwards inoculated with 30 or more mites by clipping a cassava leaf section from rearing population. Treated plants are placed inside a holding room at about 25-26° C. and about 65-70% relative humidity. Estimate percent mortality is assessed 72 hours after treatment.

[5] = system: Green Peach Aphid (Myzus persicae); experiment: whole plant or invertebrate; settings: 120 h, aphid mortality after 5 days, read-out: mortality in comparison with untreated controls
Method: Green Peach Aphid (Myzus persicae)
The 10,000 ppm solution was serially diluted in 100% cyclohexanone to make interim solutions. These served as stock solutions for which final dilutions were made by the Tecan in 50% acetone:50% water (v/v) into 10 or 20 ml glass vials. A nonionic surfactant (Kinetic®) was included in the solution at a volume of 0.01% (v/v). The vials were then inserted into an automated electrostatic sprayer equipped with an atomizing nozzle for application to plants/insects. Bell pepper plants at the first true-leaf stage were infested prior to treatment by placing heavily infested leaves from the main colony on top of the treatment plants. Aphids were allowed to transfer overnight to accomplish an infestation of 30-50 aphids per plant and the host leaves were removed. The infested plants were then sprayed by an automated electrostatic plant sprayer equipped with an atomizing spray nozzle. The plants were dried in the sprayer fume hood, removed, and then maintained in a growth room under fluorescent lighting in a 14:10 light:dark photoperiod at about 25° C. and about 20-40% relative humidity. Aphid mortality on the treated plants, relative to mortality on untreated control plants, was determined after 5 days.

CCS(=O)(=O)c1cc(Br)cnc1-c1nc2cc(C(F)(F)F)n3ncnc3c2n1C [I.2, 8-(5-bromo-3-(ethylsulfonyl)pyridin-2-yl)-9-methyl-5-(trifluoromethyl)-9H-imidazo[4,5-c][1,2,4]triazolo[1,5-a]pyridine]
> 70%: mortality at 10 ppm ([1]; 10 ppm) | mortality at 30 ppm ([2]; 30 ppm) | mortality at 10 ppm ([3]; 10 ppm) | mortality at 10 ppm ([4]; 10 ppm) | mortality at 10 ppm ([5]; 10 ppm)

CCS(=O)(=O)c1cc(Br)ccc1-c1nc2cc(C(F)(F)F)n3ncnc3c2n1C [I.8, 11-(4-bromo-2-ethylsulfonyl-phenyl)-12-methyl-7-(trifluoromethyl)-3,5,6,10,12-pentazatricyclo[7.3.0.02,6]dodeca-1(9),2,4,7,10-pentaene]
> 70%: mortality at 800 ppm ([1]; 800 ppm) | mortality at 800 ppm [2] | mortality at 800 ppm ([3]; 800 ppm) | mortality at 800 ppm [4] | mortality at 800 ppm ([5]; 800 ppm)

CCS(=O)(=O)c1cc(N=S(C)(C)=O)cnc1-c1cn2c(cc(C(F)(F)F)n3ccnc32)n1 [I.24, [5-ethylsulfonyl-6-[7-(trifluoromethyl)-1,3,6,10-tetrazatricyclo[7.3.0.02,6]dodeca-2,4,7,9,11-pentaen-11-yl]-3-pyridyl]imino-dimethyl-oxo-λ6-sulfane]
> 70%: mortality at 800 ppm [2] | mortality at 800 ppm [4]
